Results from patent publication US8927571B2, “Pyrido[4,3-B]indoles and methods of use” (Medivation Technologies, Inc., priority 2009, dated 2015).

What was measured:
[1] = molecular target: T1, human recombinant histamine H2 receptor (Homo sapiens, UniProt P25021); assay: Histamine H2 radioligand binding assay ([125I]Aminopotentidine); conditions: percent inhibition of specific binding of 0.1 nM [125I]Aminopotentidine; compounds screened at 1 μM or lower
T1 construct: expressed in transfected cells; host or cells: Chinese hamster ovary (CHO) K1 cells
Method: To evaluate in radioligand binding assays the activity of compounds of the invention, human recombinant histamine H2 receptor expressed in Chinese hamster ovary (CHO) K1 cells (Ruat, M., Proc. Natl. Acad. Sci. USA. 87(5):1658, 1990) in a 50 mM Phosphate buffer, pH 7.4 was used. Compounds of the invention were incubated with 0.1 nM [^125I]Aminopotentidine for 120 min at 25° C. Non-specific binding was estimated in the presence of 3 μM Tiotidine. Receptor proteins were filtered and washed, the filters were then counted to determine [^125I]Aminopotentidine specifically bound. Compounds were screened at 1 μM or lower, using 1% DMSO as vehicle. Biochemical assay results are presented as the percent inhibition of specific binding in Table 2.

[2] = molecular target: T2, human recombinant serotonin (5-Hydroxytryptamine) 5-HT6 receptor (Homo sapiens, UniProt P50406); assay: Serotonin 5-HT6 radioligand binding assay ([3H]LSD); conditions: 1.5 nM [3H]LSD, read-out: Percent Inhibition of ligand binding, Serotonin (1 μM) 5-HT6
T2 construct: expressed in transfected cells; host or cells: human HeLa cells
Method: (§1) Compounds of the invention were incubated with 1.5 nM [3H]Lysergic acid diethylamide (LSD) for 120 min at 37° C. […] Receptor proteins were filtered and washed, the filters were then counted to determine [3H]LSD specifically bound. Compounds were screened at 1 μM or lower, using 1% DMSO as vehicle. Biochemical assay results are presented as the percent inhibition of specific binding in Table 4.

[3] = molecular target: T3, human recombinant adrenergic α1D receptor (Homo sapiens, UniProt P25100); assay: Adrenergic α1D radioligand binding assay ([3H]Prozosin); conditions: 0.6 nM [3H]Prozosin, read-out: Percent Inhibition of ligand binding, Adrenergic (1 μM) α1D
T3 construct: expressed in transfected cells; host or cells: human embryonic kidney (HEK-293) cells
T3 sequence (P25100 1-572): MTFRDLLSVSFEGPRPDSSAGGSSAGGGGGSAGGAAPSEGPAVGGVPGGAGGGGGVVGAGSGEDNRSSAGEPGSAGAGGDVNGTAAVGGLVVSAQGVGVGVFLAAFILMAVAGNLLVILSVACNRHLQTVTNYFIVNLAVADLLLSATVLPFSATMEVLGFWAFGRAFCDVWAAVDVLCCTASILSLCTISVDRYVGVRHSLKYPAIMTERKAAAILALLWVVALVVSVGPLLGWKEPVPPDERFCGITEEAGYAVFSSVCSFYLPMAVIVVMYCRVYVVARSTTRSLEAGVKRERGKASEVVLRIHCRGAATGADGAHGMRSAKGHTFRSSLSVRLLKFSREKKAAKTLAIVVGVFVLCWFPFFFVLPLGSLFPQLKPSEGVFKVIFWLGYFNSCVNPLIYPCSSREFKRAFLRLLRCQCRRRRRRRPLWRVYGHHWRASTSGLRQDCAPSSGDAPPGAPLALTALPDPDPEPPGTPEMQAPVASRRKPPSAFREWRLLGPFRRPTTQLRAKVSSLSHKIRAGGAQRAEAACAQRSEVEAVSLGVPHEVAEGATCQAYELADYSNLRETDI
Method: Compounds of invention were incubated with 0.6 nM [^3H]Prozosin for 60 min at 25° C. Non-specific binding was estimated in the presence of 10 μM phentolamine. Receptor proteins were filtered and washed, the filters were then counted to determine [^3H]Prozosin specifically bound. Compounds were screened at 1 μM or lower, using 1% DMSO as vehicle. Biochemical assay results are presented as the percent inhibition of specific binding in Table 3.

[4] = molecular target: human recombinant dopamine D2L receptor (Homo sapiens, UniProt P14416); assay: Dopamine D2L radioligand binding assay ([3H]Spiperone); conditions: for inhibition at 1 µM: read-out: Percent Inhibition of ligand binding, Dopamine (1 μM) D2L
Method: Compounds of the invention were incubated with 0.16 nM [^3H]Spiperone for 120 min at 25° C. Non-specific binding was estimated in the presence of 10 μM Haloperidol. Receptor proteins were filtered and washed, the filters were then counted to determine [^3H]Spiperone specifically bound. Compounds were screened at 1 μM or lower, using 1% DMSO as vehicle. Biochemical assay results are presented as the percent inhibition of specific binding in Table 3.

[5] = molecular target: T4, human recombinant serotonin (5-Hydroxytryptamine) 5-HT2C receptor (Homo sapiens, UniProt P28335); assay: Serotonin 5-HT2C radioligand binding assay ([3H]Mesulergine); conditions: 1 nM [3H]Mesulergine, read-out: Percent Inhibition of ligand binding, Serotonin (1 μM) 5-HT2C
T4 construct: expressed in transfected cells; host or cells: Chinese hamster ovary (CHO-K1) cells
T4 sequence (P28335 33-458): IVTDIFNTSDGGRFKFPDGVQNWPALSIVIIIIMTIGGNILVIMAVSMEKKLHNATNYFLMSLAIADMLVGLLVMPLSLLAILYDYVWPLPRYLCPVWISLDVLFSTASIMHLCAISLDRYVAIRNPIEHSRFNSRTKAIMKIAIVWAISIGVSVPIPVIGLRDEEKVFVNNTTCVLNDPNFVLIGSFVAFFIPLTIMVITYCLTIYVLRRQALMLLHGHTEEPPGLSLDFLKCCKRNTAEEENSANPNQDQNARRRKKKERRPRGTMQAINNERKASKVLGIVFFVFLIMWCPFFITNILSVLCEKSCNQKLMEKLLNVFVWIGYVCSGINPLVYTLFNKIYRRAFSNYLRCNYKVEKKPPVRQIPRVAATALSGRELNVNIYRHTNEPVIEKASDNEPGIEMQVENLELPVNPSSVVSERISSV
Method: Compounds of the invention were incubated with 1 nM [^3H]Mesulergine for 60 min at 25° C. Non-specific binding was estimated in the presence of 1 μM Mianserin. Receptor proteins were filtered and washed, the filters were then counted to determine [^3H]Mesulergine specifically bound. Compounds were screened at 1 μM or lower, using 1% DMSO as vehicle. Biochemical assay results are presented as the percent inhibition of specific binding in Table 4.

[6] = molecular target: human recombinant serotonin (5-Hydroxytryptamine) 5-HT7 receptor (Homo sapiens, UniProt P34969); assay: Serotonin 5-HT7 radioligand binding assay ([3H]LSD); conditions: 5.5 nM [3H]LSD, read-out: Percent Inhibition of ligand binding, Serotonin (1 μM) 5-HT7
Method: as §1, with “of” for “of the”, “5.5” for “1.5”, “[^3H] Lysergic” for “[3H]Lysergic”, “2 h” for “120 min”, “25°” for “37°”, “[^3H]LSD” for “[3H]LSD”

T2 sequence (P50406 whole entry): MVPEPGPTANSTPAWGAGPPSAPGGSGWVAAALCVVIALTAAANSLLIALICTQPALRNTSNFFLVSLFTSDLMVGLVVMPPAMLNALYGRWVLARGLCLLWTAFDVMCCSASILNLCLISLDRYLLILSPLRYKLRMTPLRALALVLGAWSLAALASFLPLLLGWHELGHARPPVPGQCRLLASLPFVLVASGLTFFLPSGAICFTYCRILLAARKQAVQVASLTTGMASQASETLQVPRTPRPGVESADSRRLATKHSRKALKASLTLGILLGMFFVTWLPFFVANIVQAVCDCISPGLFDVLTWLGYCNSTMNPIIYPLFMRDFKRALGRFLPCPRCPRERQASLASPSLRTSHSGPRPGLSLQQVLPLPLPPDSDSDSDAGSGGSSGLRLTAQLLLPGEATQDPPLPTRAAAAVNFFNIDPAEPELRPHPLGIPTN
human recombinant dopamine D2L receptor, sequence (P14416 whole entry): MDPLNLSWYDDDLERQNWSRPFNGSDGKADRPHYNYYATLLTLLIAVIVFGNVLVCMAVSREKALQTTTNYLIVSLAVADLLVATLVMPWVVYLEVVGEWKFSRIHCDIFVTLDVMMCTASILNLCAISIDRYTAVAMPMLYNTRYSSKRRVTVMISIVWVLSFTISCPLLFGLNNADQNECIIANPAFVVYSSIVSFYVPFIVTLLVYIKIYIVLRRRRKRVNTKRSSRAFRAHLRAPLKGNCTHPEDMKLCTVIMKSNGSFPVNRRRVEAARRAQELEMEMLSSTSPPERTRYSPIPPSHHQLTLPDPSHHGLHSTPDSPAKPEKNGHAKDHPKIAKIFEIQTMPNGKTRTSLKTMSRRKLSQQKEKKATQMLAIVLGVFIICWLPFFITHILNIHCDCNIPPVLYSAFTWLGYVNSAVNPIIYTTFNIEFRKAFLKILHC
T1 sequence (P25021 whole entry): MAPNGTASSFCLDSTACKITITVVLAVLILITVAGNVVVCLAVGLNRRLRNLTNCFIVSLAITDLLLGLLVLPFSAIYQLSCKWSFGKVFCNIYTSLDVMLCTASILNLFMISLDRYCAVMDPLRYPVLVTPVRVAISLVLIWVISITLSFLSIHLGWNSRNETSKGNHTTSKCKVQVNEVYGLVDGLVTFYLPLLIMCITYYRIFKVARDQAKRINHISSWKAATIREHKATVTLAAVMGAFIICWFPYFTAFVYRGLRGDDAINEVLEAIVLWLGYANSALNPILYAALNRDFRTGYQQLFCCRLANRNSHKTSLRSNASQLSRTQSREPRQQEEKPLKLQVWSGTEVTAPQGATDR
human recombinant serotonin (5-Hydroxytryptamine) 5-HT7 receptor, sequence (P34969 whole entry): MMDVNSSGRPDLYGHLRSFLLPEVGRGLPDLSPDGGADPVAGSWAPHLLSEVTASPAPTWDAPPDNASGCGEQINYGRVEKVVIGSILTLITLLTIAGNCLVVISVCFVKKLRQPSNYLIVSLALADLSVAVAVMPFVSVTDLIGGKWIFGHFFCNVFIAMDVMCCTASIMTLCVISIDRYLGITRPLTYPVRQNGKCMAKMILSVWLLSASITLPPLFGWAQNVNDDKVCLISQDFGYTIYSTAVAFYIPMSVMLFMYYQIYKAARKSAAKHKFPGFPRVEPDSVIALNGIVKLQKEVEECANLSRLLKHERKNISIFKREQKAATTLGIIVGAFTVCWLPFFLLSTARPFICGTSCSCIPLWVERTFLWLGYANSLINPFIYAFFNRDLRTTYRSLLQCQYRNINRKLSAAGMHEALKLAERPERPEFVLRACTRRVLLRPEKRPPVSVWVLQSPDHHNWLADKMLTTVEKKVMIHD

Question: For Cc1ccc2c(c1)c1c(n2CC(CC(=O)O)c2ccc(F)cc2)CCN(C)C1 (stereo not drawn) [Compound 7, 4-(2,8-dimethyl-3,4-dihydro-1H-pyrido[4,3-b]indol-5(2H)-yl)-3-(4-fluorophenyl)butanoic acid], which “Binding Data (% Inhibition) Histamine Binding H2” value [1] is on record?
Answer: 5%

Question: What about the inhibition at 1 µM [2] of the same compound?
Answer: -3%

Question: What about the inhibition at 1 µM [3] of the same compound?
Answer: 21%

Question: And the inhibition at 1 µM [4]?
Answer: -10%

Question: And the inhibition at 1 µM [5]?
Answer: 14%

Question: And the inhibition at 1 µM [6]?
Answer: 5%

Question: CN1CCc2c(c3cc(Cl)ccc3n2CC2(c3ccc(Cl)cc3)OCCO2)C1 [Compound 5, 8-chloro-5-((2-(4-chlorophenyl)-1,3-dioxolan-2-yl)methyl)-2-methyl-2,3,4,5-tetrahydro-1H-pyrido[4,3-b]indole] was tested. Which “Binding Data (% Inhibition) Histamine Binding H2” value [1] did it give?
Answer: 98%

Question: What about the inhibition at 1 µM [2] of the same compound?
Answer: 85%

Question: And the inhibition at 1 µM [3]?
Answer: 16%

Question: And the inhibition at 1 µM [4]?
Answer: 53%

Question: What about the inhibition at 1 µM [5] of the same compound?
Answer: 100%

Question: And the inhibition at 1 µM [6]?
Answer: 89%

Question: CNC(=O)CC(Cn1c2c(c3cc(C)ccc31)CN(C)CC2)c1ccc(F)cc1 (stereo not drawn) [Compound 8, 4-(2,8-dimethyl-3,4-dihydro-1H-pyrido[4,3-b]indol-5(2H)-yl)-3-(4-fluorophenyl)-N-methylbutanamide] was tested. Which “Binding Data (% Inhibition) Histamine Binding H2” value [1] did it give?
Answer: 22%

Question: And the inhibition at 1 µM [2]?
Answer: 63%

Question: And the inhibition at 1 µM [3]?
Answer: 87%

Question: And the inhibition at 1 µM [4]?
Answer: 14%

Question: What about the inhibition at 1 µM [5] of the same compound?
Answer: 95%

Question: What about the inhibition at 1 µM [6] of the same compound?
Answer: 74%

Question: Which “Binding Data (% Inhibition) Histamine Binding H2” value [1] does the source give for Cc1ccc2c(c1)c1c(n2CC2(c3ccccc3)OCCO2)CCN(C)C1 [Compound 2, 2,8-dimethyl-5-((2-phenyl-1,3-dioxolan-2-yl)methyl)-2,3,4,5-tetrahydro-1H-pyrido[4,3-b]indole] here?
Answer: 89%

Question: And the inhibition at 1 µM [2]?
Answer: 102%

Question: And the inhibition at 1 µM [3]?
Answer: 56%

Question: And the inhibition at 1 µM [4]?
Answer: 51%

Question: And the inhibition at 1 µM [5]?
Answer: 96%

Question: What does the source list for CN1CCc2c(c3cc(Cl)ccc3n2CC2(c3ccc(F)cc3)OCCO2)C1 [Compound 4, 8-chloro-5-((2-(4-fluorophenyl)-1,3-dioxolan-2-yl)methyl)-2-methyl-2,3,4,5-tetrahydro-1H-pyrido[4,3-b]indole]?
Answer: Binding Data (% Inhibition) Histamine Binding H2 [1]: 96%; inhibition at 1 µM [2]: 104%; inhibition at 1 µM [3]: 35%; inhibition at 1 µM [4]: 58%; inhibition at 1 µM [5]: 101%; inhibition at 1 µM [6]: 93%

Question: How did the “Binding Data (% Inhibition) Histamine Binding H2” value [1] turn out when Cc1ccc2c(c1)c1c(n2CC2(c3ccc(F)cc3)OCCO2)CCN(C)C1 [Compound 3, 5-((2-(4-fluorophenyl)-1,3-dioxolan-2-yl)methyl)-2,8-dimethyl-2,3,4,5-tetrahydro-1H-pyrido[4,3-b]indole] was run?
Answer: 96%

Question: And the inhibition at 1 µM [2]?
Answer: 103%

Question: And the inhibition at 1 µM [3]?
Answer: 60%

Question: And the inhibition at 1 µM [4]?
Answer: 45%

Question: What about the inhibition at 1 µM [5] of the same compound?
Answer: 93%

Question: What about the inhibition at 1 µM [6] of the same compound?
Answer: 99%

Question: With CCOC(=O)CC(Cn1c2c(c3cc(C)ccc31)CN(C)CC2)c1ccc(F)cc1 (stereo not drawn) [Compound 6, ethyl 4-(2,8-dimethyl-3,4-dihydro-1H-pyrido[4,3-b]indol-5(2H)-yl)-3-(4-fluorophenyl)butanoate] as the compound, how does the “Binding Data (% Inhibition) Histamine Binding H2” value [1] read?
Answer: 86%

Question: What about the inhibition at 1 µM [2] of the same compound?
Answer: 102%

Question: And the inhibition at 1 µM [3]?
Answer: 106%

Question: And the “Percent Inhibition of ligand binding, Dopamine (1 μM) D2L” value [4]?
Answer: 31%

Question: What about the inhibition at 1 µM [4] of the same compound?
Answer: 24%

Question: And the inhibition at 1 µM [5]?
Answer: 93%

Question: What about the inhibition at 1 µM [6] of the same compound?
Answer: 93%
